The test system of data set [1] is Male Sprague-Dawley rats. The data set is classed as in vivo. As to conditions: rat.
For data set [2], the system named is Male Sprague-Dawley rats. The conditions noted are these: maximum pCO2 within 2 hours of administration, rat, subcutaneous.
Data set [3] concerns the target human μ opioid receptor (Homo sapiens (Human), UniProt P35372). Put plainly: Alternate functional activity ([35S]GTPγS binding, SPA) assay. It is filed as biochemical. The conditions noted are these: alternate [35S]GTPγS binding assay (SPA beads), CHO cell membranes expressing human μ opioid receptor. As for the experimental part: The [^35S]GTPγS assay measures the functional properties of a compound by quantifying the level of G-protein activation following agonist binding in studies using stably transfected cells, and is considered to be a measure of the efficacy of a compound. Membranes from CHO (Chinese Hamster Ovary) cells that stably expressed one type of the cloned human opioid receptor human were used in the experiments. The assay buffer consisted of 50 mM Tris-HCl, pH 7.4, 3 mM MgCl2, 0.2 mM EGTA, 5 μM GDP, and 100 mM NaCl. CHO cell membranes stably expressing the human p opioid receptor were pre-incubated with scintillation proximity assay beads from PerkinElmer® (WGA PVT SPA) for 30 minutes, at 8 µg membrane and 350 µg beads in a volume of 0.1 mL per reaction. In a final volume of 0.2 mL, 11 different concentrations of each test compound were incubated with the membrane-SPA bead mixture and a final concentration of 0.020 nM [35S]GTPγS for 1.5 hours with gentle shaking. Reactions were then incubated for 5 hours. Data are the mean EC50 values±S.E.M. EC50 values (nM) for compounds 12, 16, 19, 20, 149, 151, 152, 157, 160, 161, 164-169, 172, 173, 180-197, and 199-207 are shown in Table 1.

The structures appear in SMILES notation. Like-named read-outs stand apart in the source and are kept apart here.

Consider `CO[C@@]12CC[C@@]3(C[C@@H]1[C@](C)(O)C(C)(C)C)[C@H]1Cc4ccc(O)c5c4[C@@]3(CCN1CC1CC1)[C@H]2O5` [Buprenorphine, buprenorphine, reference compound], for which the “MEMO SC CFA” value in data set [1] (in vivo) came out at 0.1 mg/kg.

Turning to `COC1(c2cccc(C(N)=O)c2)C2CCCC1CN(C1CC3(COC3)C1)C2.O=C(O)C[C@H](O)C(=O)O` [Compound 133, 3-((1R,5S,9r)-9-methoxy-3-(2-oxaspiro[3.3]heptan-6-yl)-3-azabicyclo[3.3.1]nonan-9-yl)benzamide (S)-2-hydroxysuccinate], the “<60 mmHg @ 10X CFA MEMD” value in data set [2] is reported as “+ (resulted in a maximum pCO2 value of less than 60 mmHg within 2 hours of administration)”.

Regarding `CO[C@@]1(c2ccnc(C(N)=O)c2)[C@@H]2CCC[C@H]1CN(Cc1ncc(C)[nH]1)C2.Cl` [Compound 153, 4-((1R,5S,9r)-9-methoxy-3-((5-methyl-1H-imidazol-2-yl)methyl)-3-azabicyclo[3.3.1]nonan-9-yl)picolinamide Hydrochloride], the “MEMO SC CFA” value in data set [1] (minimum dose at which maximal reversal (MEMD) of weight bearing was achieved, subcutaneous administration) was found to be 1 mg/kg.

With `CCOC1(c2cccc(C(N)=O)c2)C2CCCC1CNC2` [Compound 160, 3-((1R,5S,9r)-9-ethoxy-3-azabicyclo[3.3.1]nonan-9-yl)benzamide], the “<60 mmHg @ 10X CFA MEMD” value in data set [2] is given as “+ (resulted in a maximum pCO2 value of less than 60 mmHg within 2 hours of administration)”. Besides, the “<60 mmHg @ 100X CFA MEMD” value in data set [2] (100X CFA MEMD dose) is “+ (resulted in a maximum pCO2 value of less than 60 mmHg within 2 hours of administration)”.

Turning to `CCOC1(c2cc(C(N)=O)ccc2F)C2CCCC1CN(C)C2` (stereo not drawn) [Compound 194], the EC50 in data set [3] lay within 10 to 75 nM.
